{"source": "patent US20050059646A1", "about": "“Use of 4-androstene-3,6,17-trione to elevate testosterone levels and the testosterone/estrogen ratio in males” (Proviant Technology Inc., priority 2003, published 2005)", "key": {"male subjects": {"tested_on": "male subjects", "test": "Open label study: 300 mg a-trione bid for three weeks, endocrine markers in resting AM blood draws", "assay_type": "in vivo, human", "design": "Free Testosterone: unit not given here", "conditions": "for Total Testosterone: 300 mg bid oral, six male subjects, Week 0 baseline 443.67; for Estradiol / Sex Hormone Binding Globulin (SHBG) / Dihydrotestosterone / Free Testosterone / T/E Ratio: 300 mg bid; for Estradiol: Week 0 baseline 16.5; for Sex Hormone Binding Globulin (SHBG): Week 0 baseline 21.83; for Dihydrotestosterone: Week 0 baseline 33.33; for Free Testosterone: Week 0 baseline 126.67; for T/E Ratio: Week 0 baseline 269/1", "method": "Six male subjects, aged 32-40 years of age, were prescreened via a medical doctor for endocrinological abnormalities. The subjects' physical characteristics were: height 177.38+/−[…] cm, weight 88.8+/−13.65 kg, body fat percentage 14.9+/−3.5%. Subjects ingested 300 mg a-trione bid for three weeks as part of an open label design. Resting AM blood draws were taken at 0, 1, 2, and 3 weeks of supplementation. Table 1 indicates the changes in endocrine markers over the time evaluated. Results were analyzed using a Repeated Measures-ANOVA design with paired samples t-tests as appropriate. […] Therefore, a-trione can raise the T/E ratio while leaving estradiol in the safe physiological range."}, "aromatase enzyme": {"target": "T1, aromatase enzyme (Homo sapiens, UniProt P11511)", "T1 sequence (P11511 1-503)": "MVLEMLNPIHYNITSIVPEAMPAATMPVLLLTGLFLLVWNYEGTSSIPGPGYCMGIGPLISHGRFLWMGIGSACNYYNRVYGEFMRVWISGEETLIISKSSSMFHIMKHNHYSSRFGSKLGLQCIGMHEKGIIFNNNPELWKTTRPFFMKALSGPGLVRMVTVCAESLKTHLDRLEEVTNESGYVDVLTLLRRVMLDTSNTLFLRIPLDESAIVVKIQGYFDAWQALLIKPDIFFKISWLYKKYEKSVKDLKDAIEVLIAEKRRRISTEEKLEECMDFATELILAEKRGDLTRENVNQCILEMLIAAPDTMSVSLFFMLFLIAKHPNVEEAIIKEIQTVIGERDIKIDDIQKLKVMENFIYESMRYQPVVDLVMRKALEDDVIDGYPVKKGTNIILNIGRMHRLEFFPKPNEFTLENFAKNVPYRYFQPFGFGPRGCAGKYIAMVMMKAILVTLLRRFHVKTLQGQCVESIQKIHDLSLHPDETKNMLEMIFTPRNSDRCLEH", "conditions": "in-vitro; cited from earlier work"}, "[1]": {"conditions": "300 mg bid for three weeks, change over the time evaluated"}}, "data": [{"smiles": "C[C@]12CCC(=O)C=C1C(=O)C[C@@H]1[C@@H]2CC[C@]2(C)C(=O)CC[C@@H]12", "note": "[a-trione, 4-androstene-3,6,17-trione]", "values": [{"measurement": "change in estrogen", "setting": "male subjects; [1]", "value": "−11", "unit": "%"}, {"measurement": "increase in testosterone levels", "setting": "male subjects; [1]", "value": "+88%"}, {"measurement": "Total Testosterone", "setting": "male subjects; Week 1", "value": 701.17, "unit": "ng/dL"}, {"measurement": "Estradiol", "setting": "male subjects; Week 1", "value": 16.5, "unit": "pg/mL"}, {"measurement": "Sex Hormone Binding Globulin (SHBG)", "setting": "male subjects; Week 1", "value": 20.5, "unit": "nmol/L"}, {"measurement": "Dihydrotestosterone", "setting": "male subjects; Week 1", "value": 39.83, "unit": "ng/dL"}, {"measurement": "Free Testosterone", "setting": "male subjects; Week 1", "value": 216.67}, {"measurement": "T/E Ratio", "setting": "male subjects; Week 1", "value": "425/1"}, {"measurement": "Total Testosterone", "setting": "male subjects; Week 2", "value": 752.17, "unit": "ng/dL"}, {"measurement": "Estradiol", "setting": "male subjects; Week 2", "value": 14.8, "unit": "pg/mL"}, {"measurement": "Sex Hormone Binding Globulin (SHBG)", "setting": "male subjects; Week 2", "value": 19.5, "unit": "nmol/L"}, {"measurement": "Dihydrotestosterone", "setting": "male subjects; Week 2", "value": 45.83, "unit": "ng/dL"}, {"measurement": "Free Testosterone", "setting": "male subjects; Week 2", "value": 252.33}, {"measurement": "T/E Ratio", "setting": "male subjects; Week 2", "value": "508/1"}, {"measurement": "Total Testosterone", "setting": "male subjects; Week 3", "value": 835.33, "unit": "ng/dL"}, {"measurement": "Estradiol", "setting": "male subjects; Week 3", "value": 14.67, "unit": "pg/mL"}, {"measurement": "Sex Hormone Binding Globulin (SHBG)", "setting": "male subjects; Week 3", "value": 18.83, "unit": "nmol/L"}, {"measurement": "Dihydrotestosterone", "setting": "male subjects; Week 3", "value": 47.5, "unit": "ng/dL"}, {"measurement": "Free Testosterone", "setting": "male subjects; Week 3", "value": 285.67}, {"measurement": "T/E Ratio", "setting": "male subjects; Week 3", "value": "569/1"}, {"measurement": "effect on estradiol (in words)", "setting": "male subjects; male endocrinological profile", "value": "small, barely significant decrease in estradiol"}, {"measurement": "effect on testosterone (in words)", "setting": "male subjects; male endocrinological profile", "value": "very marked increase of testosterone"}, {"measurement": "aromatase inhibiting activity", "setting": "aromatase enzyme", "value": "has been shown to have aromatase inhibiting activity in-vitro"}]}]}
